What all share (assay type): cell-based, human
Series [1] has as its system IL-1α. The series is described as follows: ELISA of secreted IL-1α in supernatant of HaCaT cells. The settings on record: 24-hour stimulation, 500 μM. As for the experimental part: (§1) In order to investigate interleukin secretion, quantitative real-time PCR was first carried out. For this purpose, RNA from HaCaT cells was used that had previously been stimulated for 6 or 24 hours with Sandalore®. Detection was carried out with specific primers of various interleukins (IL-1α, IL-1β, IL-6, IL-8) and tumor necrosis factor (TNF▪). […] In order to corroborate the results, an ELISA assay was carried out, in which the secreted interleukins in the supernatant of the cells can be detected by means of an immunological reaction. By means of the assay used, secretion of the interleukins (IL-1α, IL-1β, IL-2, IL-4, IL-6, IL-8, IL-10, IL-12, and IL-17α), TNFα, γ-interferon (IFNγ), and granulocyte macrophage colony-stimulating factor (GMCSF) was investigated.
(§2) Investigation of interleukin secretion and phosphorylation of Akt protein kinase after Sandalore® stimulation. A) Investigation of the regulation of interleukins in HaCaT cells by means of qRT-PCR after stimulation with Sandalore® (500 μM) for 6 h and 24 h. 0.1% DMSO was used as a control. GAPDH was used as a reference gene, and the relative expression between untreated and stimulated cells was determined. Mean values including standard error. n=3 experiments. […] The measured optical density of the treated cells at 450 nm was expressed relative to the background. […]

Series [2] has as its system IL-1α. The series is described as follows: Quantitative real-time PCR of IL-1α in HaCaT cells. As for the experimental part:
as §1, §2

Series [3] deals with HaCaT cells. The series is described as follows: Morphology and propidium iodide staining after 5-day stimulation, HaCaT cells. The note with it: 5-day incubation with 500 μM. The procedure: In order to obtain initial data on possible physiological effects caused by the activation of OR2AT4, HaCaT cells and primary keratinocytes were stimulated for five days with Sandalore®. […] A lethal effect of the odorant can therefore be ruled out (FIG. 16a).
Effect of Sandalore® long-term stimulation on morphology, growth, and migration processes in keratinocytes. A) Phase contrast image and PI stains of HaCaT cells and primary keratinocytes after stimulation with Sandalore® (500 μM) or 0.1% DMSO (control) for five days. On positive PI staining, the cell nuclei are stained red. Scale: 100 μm. B) Evaluation of the proliferation assay carried out with the CyQuant Cell Proliferation Kit on HaCaT cells after 5-day stimulation with 500 μM of Sandalore® or 0.1% DMSO (control). For the RNA interference experiments, the cells were transfected with siRNA or scRNA on the day before Sandalore® stimulation. Shown is the mean cell count including standard error relative to untreated cells. Mann-Whitney U test; n=3 experiments. *: p<0.05; **: p<0.01. S: Sandalore. C) Agarose assay for determination of migration of HaCaT cells. Top: Transmitted light images of HaCaT cells that have migrated in the direction of Sandalore® (500 μM) or 0.1% DMSO. […] The longest path traversed by the cells and the overgrown area were measured and compared to the control (0.1% DMSO). […]

Series [4] concerns IL-6, IL-8, tumor necrosis factor. The series is described as follows: Quantitative real-time PCR of the other interleukins in HaCaT cells. The settings on record: 6 or 24 hours, 500 μM. The procedure:
as §1, §2

For series [5], the system named is HaCaT cells. In words: Agarose migration assay with HaCaT cells. The settings on record: 500 μM versus 0.1% DMSO, five days. As for the experimental part: For this reason, an agarose migration assay was conducted in order to determine whether the increased cell growth is accompanied by increased chemotactic behavior.
Effect of Sandalore® long-term stimulation on morphology, growth, and migration processes in keratinocytes. A) Phase contrast image and PI stains of HaCaT cells and primary keratinocytes after stimulation with Sandalore® (500 μM) or 0.1% DMSO (control) for five days. On positive PI staining, the cell nuclei are stained red. Scale: 100 μm. B) Evaluation of the proliferation assay carried out with the CyQuant Cell Proliferation Kit on HaCaT cells after 5-day stimulation with 500 μM of Sandalore® or 0.1% DMSO (control). For the RNA interference experiments, the cells were transfected with siRNA or scRNA on the day before Sandalore® stimulation. Shown is the mean cell count including standard error relative to untreated cells. Mann-Whitney U test; n=3 experiments. *: p<0.05; **: p<0.01. S: Sandalore. C) Agarose assay for determination of migration of HaCaT cells. Top: Transmitted light images of HaCaT cells that have migrated in the direction of Sandalore® (500 μM) or 0.1% DMSO. The growth margin of the cells was surrounded in black. Scale: 250 μm. Bottom: Evaluation of the proliferation assay. The longest path traversed by the cells and the overgrown area were measured and compared to the control (0.1% DMSO). Paired two-sided T test. […]

The next series relates to protein kinase Akt. In words: Western Blot, phosphorylation of protein kinase Akt in HaCaT cells. As for the experimental part:
In addition to the phosphorylated kinases already detected, the phosphorylation of protein kinase Akt was investigated. For this purpose, HaCaT cells were stimulated with Sandalore® for 0, 5, 15 and 30 min, and phosphorylation was investigated by means of Western Blot assays and special antibodies to the unphosphorylated or phosphorylated form of the Akt-protein.
Investigation of interleukin secretion and phosphorylation of Akt protein kinase after Sandalore® stimulation. A) Investigation of the regulation of interleukins in HaCaT cells by means of qRT-PCR after stimulation with Sandalore® (500 μM) for 6 h and 24 h. 0.1% DMSO was used as a control. GAPDH was used as a reference gene, and the relative expression between untreated and stimulated cells was determined. Mean values including standard error. n=3 experiments. B) ELISA assay for the detection of interleukins in the supernatant of HaCaT cells stimulated for 24 h with Sandalore® (500 μM). 0.1% DMSO was used as a control. The measured optical density of the treated cells at 450 nm was expressed relative to the background. Supernatants of three independent stimulations were used. Mean values including standard error. Mann-Whitney U test. *: p<0.05. C) Western Blot for investigating phosphorylation of Akt protein kinase by HaCaT cells stimulated for 0, 5, 15, and 30 min with Sandalore® (500 μM). […]

The next series deals with ERK1/2 MAPK. In words: Western Blot, phosphorylation of ERK1/2 MAPK in HaCaT cells. The settings on record: 500 μM. The procedure:
(§3) In the following, an investigation was to be conducted to determine whether a MAPK signalling pathway is activated by Sandalore® stimulation in skin cells, and if so, which pathway is involved. For detection, HaCaT cells were stimulated for 0-30 min with 500 μM of Sandalore®, and the proteins were then isolated and used in Western Blot assays.
In order to reveal a possible interaction of the two MAPK signalling pathways, ERK1/2 phosphorylation in the presence of the p38 MAPK inhibitor SB203580 and p38 MAPK phosphorylation in the presence of the ERK1/2 MAPK inhibitor U0126 were investigated. Phosphorylation was increased for both kinases in the presence of the respective inhibitors compared to the cells stimulated with Sandalore® only. This effect was significant for p38 MAPK (FIG. 17c).
(§4) Effect of Sandalore® stimulation on phosphorylation of MAP kinases in skin cells. A) Western Blot for investigating the phosphorylation of the MAP kinases in HaCaT cells stimulated for 0, 5, 15 and 30 min with Sandalore®(500 μM). In order to confirm uniform protein volume, ▪-tubulin was used as a control. ERK1/2: 42/44 kDa; p38: 43 kDa; JNK/SAPK: 46/54 kDA; ▪-tubulin: 52 kDa. B) Quantitative evaluation of p38 and ERK1/2 phosphorylation of HaCaT cells stimulated for 30 min with Sandalore®(500 μM) or additionally with the p38 inhibitor 5B203580 (10 μM) or ERK1/2 inhibitor U0126 (10 μM). For evaluation, the ratio of the phosphorylated (p) and unphosphorylated proteins was established and compared to that of untreated cells. Mean values including standard error. Mann-Whitney U test. *: p<0.05; ***: p<0.001. In C), the inhibitors of the respective other MAP kinase were used, and phosphorylation was compared to the cells stimulated with Sandalore® (500 μM) alone. Mean values including standard error. Mann-Whitney U test. *: p<0.05. The Western Blot analyses were carried out with three different protein isolations.

The next series deals with JNK/SAPK. The series is described as follows: Western Blot, phosphorylation of JNK/SAPK in HaCaT cells. The note with it: 500 μM, 0-30 min. The procedure: as §3
as §4, with “The Western Blot analyses were carried out with three different protein isolations.” left out

In the case of `CC1=CCC(CCC(C)C(C)O)C1(C)C` (centres unmarked) [Sandalore®], in the series on IL-1α [1], the “secretion of IL-1α relative to the control (0.1% DMSO)” value is recorded as “significantly increased secretion”. Also, the “increase of expression of IL-1α relative to the control (0.1% DMSO)” value in the series on IL-1α [2] (after 24 hours, 500 μM) is recorded as “approx. 10,000%”. Besides, the “expression of IL-1α” value in the series with IL-1α [2] (summary statement) is recorded as “increased”. In the series with HaCaT cells [3], the “morphological changes or PI staining (lethal effect)” value is “neither the HaCaT cells nor the keratinocytes showed morphological changes or PI staining”. For the same molecule, the “expression rate of the other interleukins” value in series [4] is “no increase in the expression rate”. Further, the “chemotactic migration of the HaCaT cells” value in the series with HaCaT cells [5] is “significant chemotactic migration”. Besides, the “time until Akt kinase was phosphorylated” value with protein kinase Akt (500 μM, 0, 5, 15 and 30 min) is listed as at most 5 min. In the series with protein kinase Akt (summary statement), the “activation of the protein kinase Akt” value is reported as “activated”. The “phosphorylation of ERK1/2 MAPK, quantification” value in the series with ERK1/2 MAPK (30-minute stimulation) is “significant increase”. Also, the “phosphorylation of ERK1/2 MAPK” value with ERK1/2 MAPK (within 5-30 min) is reported as “increased phosphorylation”. In the series on JNK/SAPK, the “phosphorylation of JNK/SAPK” value is recorded as “no phosphorylation of JNK/SAPK”.
